Literature values, collected in US8097423B2, “MN/CA IX and breast cancer therapy” (Institute of Virology, priority 2008, dated 2012).

Key:
[1] = weak basic drug
[2] = test system: T2-4 N0-1 breast cancer; conditions: breast cancer patients, primary systemic treatment, four cycles before surgery; no significant difference between arms
[3] = Phase I and II clinical trials

CC/C(=C(\c1ccccc1)c1ccc(OCCN(C)C)cc1)c1ccccc1 [Tamoxifen, tamoxifen]
pKa [1]: 8.8

COc1cccc2c1C(=O)c1c(O)c3c(c(O)c1C2=O)C[C@@](O)(C(=O)CO)C[C@@H]3O[C@H]1C[C@H](N)[C@@H](O)[C@H](C)O1 [epirubicin]
treatment responses [2]: 76%

Rencarex®: an MN-specific drug
tolerability / drug-related side effects [3]: well-tolerated, with no serious drug-related side effects
